CCOC(=O)[C@@H](N)CCc1ccccc1.Cl
solubility (mole fraction)
Conditions | 283.15 K | 288.15 K | 293.15 K | 298.15 K | 303.15 K | 313.15 K | 323.15 K
in 1,4-dioxane | – | 0.00221 | 0.00266 | – | 0.00381 | 0.00845 | 0.0142
in 2-butanone | 0.00022 | – | 0.00031 | – | 0.0004 | 0.00073 | 0.0013
in acetone | 0.00068 | – | 0.00117 | – | 0.00182 | 0.00297 | 0.00505
in dichloromethane | 0.0172 | 0.0233 | 0.0303 | 0.0386 | 0.0489 | – | –
in ethanol | 0.031 | – | 0.0393 | – | 0.0505 | 0.0666 | 0.0867
in isobutanol | 0.0101 | – | 0.014 | – | 0.0203 | 0.0311 | 0.0472
in isopropanol | 0.00726 | – | 0.0096 | – | 0.0135 | 0.0192 | 0.0286
in methyl acetate | 4e-05 | – | 5e-05 | – | 0.00012 | 0.00024 | 0.00034
in n-butanol | 0.0128 | – | 0.0163 | – | 0.022 | 0.0253 | 0.0277
in n-pentanol | 0.0161 | – | 0.0215 | – | 0.0294 | 0.0427 | 0.0595
in n-propanol | 0.019 | – | 0.0262 | – | 0.0353 | 0.0487 | 0.0679
in sec-butanol | 0.00416 | – | 0.00614 | – | 0.00846 | 0.013 | 0.0257

Reference: BigSolDB 2.1
